The results in this text go back to patent publication US8420657B2 (Novartis AG, priority 2008, dated 2013).

By IC50 is commonly meant the concentration at which inhibition is half-maximal.

Assay [1] concerns JAK1/JAK2-dependent nuclear translocation of STAT1-GFP in HT1080 fibrosarcoma cells. Kind of assay: STAT1 nuclear translocation assay (Cellomics), IFN-γ stimulated HT1080 STAT1-GFP cells. In kind it is cell-based. The settings on record: Homo sapiens, HT-1080, STAT1 translocation pathway. The source says:
The medium-throughput (96-well format) cellular automated fluorescence microscopy Cellomics assay can be routinely used to assess the functional activation of Janus Kinases (JAKs), based on the nuclear translocation of their substrate, Signal Transducer and Activator of Transcription (STAT). Nuclear translocation can be monitored either in HT1080 fibrosarcoma cells stably transfected with STAT1 fused to Green Fluorescence Protein (GFP) or in U-2 OS osteosarcoma cells stably transfected with STAT5 fused to Green Fluorescence Protein (GFP). Stimulation of HT1080 cells with interferon-γ (IFN-γ) results in JAK1/JAK2-dependent nuclear translocation of STAT1-GFP, whereas stimulation of U-2 OS cells with recombinant human erythropoietin (rhEpo) results in JAK2-dependent nuclear translocation of STAT5-GFP, both of which can be quantified using the Cellomics Cyto/NucTrans software package. This assay may be used to provide an assessment of the nuclear-cytoplasmic differential (NCD) of STAT-GFP using Hoechst dye to define the boundaries of the nucleus.
HT1080 fibrosarcoma cells may be obtained from ATCC and can be cultured in alpha Modified Eagle Medium with 10% FCS. Cells can be transfected with pEGFP-N2 STAT1 using Fugene 6 Transfection Reagent following the manufacturers' protocol. 24 hours after transfection the medium can be replaced and selected in 1 mg/ml Geneticin.
Compounds can be dissolved in DMSO to a final stock concentration of 10 mM and stored as aliquots at 4° C. Compounds may be pre-diluted in 100% DMSO at 10 mM, 3 mM 1 mM, 0.3 mM, 0.1 mM, 0.03 mM, 0.01 mM and 0.003 mM. Subsequently, compounds may be diluted in medium and added in 50 μl to the cells. The final compound concentrations tested may be 10 μM, 3 μM 1 μM, 0.3 μM, 0.1 μM, 0.03 μM, 0.01 μM and 0.003 μM and the final DMSO concentration can be 0.1%.
HT1080 STAT1-GFP cells may be seeded at a density of 10,000 cells per well in clear-bottom black 96-well Packard View-Plates™. 16-24 hours later, the cells can be treated for 2 hours with 100 ng/ml IFN-γ, washed twice in pre-warmed PBS and fixed in 200 μl of pre-warmed fixation solution (PBS, 3.7% Formaldehyde) for 10 minutes. The plates may be washed twice in 200 μl PBS and incubated, protected from light, in 100 μl of DNA-staining solution (PBS, 0.5 μg/ml Hoechst-33342) for 1 minute. The plates may then be washed once in PBS, and 200 μl PBS finally added per well. The plates, being finally covered with a black adhesive, may be either read directly or stored at 4° C. for later imaging. Where appropriate, the compounds may be added 30 min before stimulation with IFN-γ.
The plates can be read on a Cellomics® ArrayscanII automated fluorescence microscope plate reader equipped with a Mercury-Xenon white light illumination source and a Zeiss Axiovert inverted microscope, using the XF100 dichroic/emission filter cube and matching excitation filters, 10× magnification, and a 0.3 numerical aperture objective. Image acquisition and analysis can be performed using a customized protocol based on the ‘NuclearTranslocation’ Bioapplication. For each well, multiple images (fields) can be acquired until a minimum of 1000 cells are counted using two 2 channels: Channel 1 (Hoechst)=focus+nuclear mask, Channel 2 (GFP)=signal quantification in mask areas as outlined below. Nuclei may be first identified based on the Hoechst staining and a mask generated for each nucleus that then serves as a template to generate a circle (eroded inwards by 1 pixel) and a 3 pixel-wide collar-like ring (off-set outwards by 1 pixel), in which the nuclear and cytoplasmic intensity of GFP, respectively, are quantified in the corresponding channel. High content analysis yields numerous measurements per cell and the GFP intensity differential between the nuclear and the cytoplasmic masks may be chosen as a measure of sub-cellular STAT-GFP relocation. The resulting values may be averaged for all cells in the well to return a single measurement plus standard deviation. […]

For a further assay, the target named is T1, GST-JAK2(808-1132) (Homo sapiens, UniProt O60674).
T1 construct: GST-JAK2(808-1132); purchased Invitrogen (Carlsbad, USA) #4288
T1 sequence (O60674 808-1132): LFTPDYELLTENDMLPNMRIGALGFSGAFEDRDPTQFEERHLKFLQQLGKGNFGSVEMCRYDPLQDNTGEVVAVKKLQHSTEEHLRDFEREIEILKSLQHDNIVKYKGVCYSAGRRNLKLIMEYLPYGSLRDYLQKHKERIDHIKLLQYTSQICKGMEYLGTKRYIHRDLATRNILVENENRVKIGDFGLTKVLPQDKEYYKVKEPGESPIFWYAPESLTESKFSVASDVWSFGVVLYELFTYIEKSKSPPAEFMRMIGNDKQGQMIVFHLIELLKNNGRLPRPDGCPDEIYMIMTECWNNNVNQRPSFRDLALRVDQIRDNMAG
As to the kind of experiment: JAK2 kinase assay (Caliper mobility shift, LabChip 3000). The class given is biochemical. A digest of the protocol: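 Recombinant GST-JAK2(808-1132) kinase domain with FITC-labelled JAK3tide peptide substrate and ATP; 60 min at 30 °C, EDTA stop. Substrate/product ratio read by microfluidic mobility shift; compounds at 8 final concentrations, 10 to 0.003 μM.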

Regarding `Cc1cc(Nc2ncc3ccn(-c4ccc(CN5CCOCC5)c(F)c4)c3n2)ccc1F` [Example 127, (4-Fluoro-3-methyl-phenyl)-[7-(3-fluoro-4-morpholin-4-ylmethyl-phenyl)-7H-pyrrolo[2,3-d]pyrimidin-2-yl]-amine], the IC50 in assay [1] came to 720 nM; at GST-JAK2(808-1132) it was 10.5 nM.
As to `O=C1CN(Cc2c(F)cc(-n3ccc4cnc(Nc5ccc(CN6CCN(C7CC7)CC6)cc5)nc43)cc2F)CCN1` [Example 340, 4-(4-{2-[4-(4-Cyclopropyl-piperazin-1-ylmethyl)-phenylamino]-pyrrolo[2,3-d]pyrimidin-7-yl}-2,6-difluoro-benzyl)-piperazin-2-one], the results for the IC50 (in assay [1]; on GST-JAK2(808-1132)) were 270 nM and 7.2 nM, respectively.
Turning to `COCc1ccc(Nc2ncc3ccn(-c4ccc(CN5CCOCC5)c(Cl)c4)c3n2)cc1` [Example 176, [7-(3-Chloro-4-morpholin-4-yl methyl-phenyl)-7H-pyrrolo[2,3-d]pyrimidin-2-yl]-(4-methoxymethyl-phenyl)-amine], the IC50 in assay [1] stood at 1550 nM; at GST-JAK2(808-1132) it was 7.3 nM.
The like results for `CCN1CCN(c2ccc(Nc3ncc4ccn(-c5ccc(CC(=O)N6CCS(=O)(=O)CC6)c(F)c5)c4n3)cc2C)CC1` [Example 292, 1-(1,1-Dioxido-thiomorpholin-4-yl)-2-(4-{2-[4-(4-ethyl-piperazin-1-yl)-3-methyl-phenylamino]-pyrrolo[2,3-d]pyrimidin-7-yl}-2-fluoro-phenyl)-ethanone] were, in that order, 12.5 nM and under 3 nM.
For `CC(C)Oc1ccc(Nc2ncc3ccn(-c4ccc(CN5CCS(=O)(=O)CC5)c(Cl)c4)c3n2)cc1` [Example 113, {7-[3-Chloro-4-(1,1-dioxido-thiomorpholin-4-ylmethyl)-phenyl]-7H-pyrrolo[2,3-d]pyrimidin-2-yl}-(4-isopropoxy-phenyl)-amine] the same measures were 108 nM and 4.2 nM.
`COCc1ccc(Nc2ncc3ccn(-c4cc(F)c(CN5CCOCC5)c(F)c4)c3n2)cc1` [Example 135, [7-(3,5-Difluoro-4-morpholin-4-ylmethyl-phenyl)-7H-pyrrolo[2,3-d]pyrimidin-2-yl]-(4-methoxymethyl-phenyl)-amine]: the IC50 in assay [1] is 420 nM; on GST-JAK2(808-1132) it was 4.9 nM.
`COc1cc(Nc2ncc3ccn(-c4ccc(C(=O)N5CCN(C)CC5)c(F)c4)c3n2)ccc1F` [Example 154, {2-Fluoro-4-[2-(4-fluoro-3-methoxy-phenylamino)-pyrrolo[2,3-d]pyrimidin-7-yl]-phenyl}-(4-methyl-piperazin-1-yl)-methanone]: the 50% inhibitory concentration (IC50) came to 6440 nM in assay [1] and 250 nM on GST-JAK2(808-1132).
As to `COc1cc(Nc2ncc3ccn(-c4cc(F)c(CN5CCS(=O)(=O)CC5)c(F)c4)c3n2)ccc1C` [Example 308, {7-[4-(1,1-Dioxido-thiomorpholin-4-ylmethyl)-3,5-difluoro-phenyl]-7H-pyrrolo[2,3-d]pyrimidin-2-yl}-(3-methoxy-4-methyl-phenyl)-amine], the IC50 in assay [1] is 15 nM; on GST-JAK2(808-1132), under 3 nM.
Consider `CS(=O)(=O)c1ccc(-n2ccc3cnc(Nc4cccc(Cn5ccnc5)c4)nc32)cc1` [Example 47, (3-Imidazol-1-ylmethyl-phenyl)-[7-(4-methanesulfonyl-phenyl)-7H-pyrrolo[2,3-d]pyrimidin-2-yl]-amine], for which the IC50 in assay [1] was 73 nM; on GST-JAK2(808-1132), under 3 nM.
As for `Cc1ccc(Nc2ncc3ccn(-c4ccc(CN5CCS(=O)(=O)CC5)c(F)c4)c3n2)cc1Cl` [Example 121, (3-Chloro-4-methyl-phenyl)-{7-[4-(1,1-dioxido-thiomorpholin-4-ylmethyl)-3-fluoro-phenyl]-7H-pyrrolo[2,3-d]pyrimidin-2-yl}-amine], the IC50 in assay [1] is 152 nM; at GST-JAK2(808-1132) it was 15.5 nM.
Consider `CCN1CCN(Cc2ccc(-n3ccc4cnc(Nc5ccc(F)c(C)c5)nc43)cc2F)CC1` [Example 124, {7-[4-(4-Ethyl-piperazin-1-ylmethyl)-3-fluoro-phenyl]-7H-pyrrolo[2,3-d]pyrimidin-2-yl}-(4-fluoro-3-methyl-phenyl)-amine], for which the IC50 turned out to be 2160 nM in assay [1] and 85 nM at GST-JAK2(808-1132).
On to `Cc1ccc(Nc2ncc3ccn(-c4ccc(C(=O)N5CCOCC5)c(F)c4)c3n2)cn1` [Example 223], for which the IC50 worked out at 455 nM in assay [1] and 9.2 nM at GST-JAK2(808-1132).
The like results for `Cc1cc(Nc2ncc3ccn(-c4cc(F)c(CN5CCOCC5)c(F)c4)c3n2)ccc1F` [Example 131, [7-(3,5-Difluoro-4-morpholin-4-ylmethyl-phenyl)-7H-pyrrolo[2,3-d]pyrimidin-2-yl]-(4-fluoro-3-methyl-phenyl)-amine] were, in that order, 1500 nM and 16 nM.
On to `CCOc1ccc(Nc2ncc3ccn(-c4ccc(CN5CCOCC5)c(Cl)c4)c3n2)cc1OCC` [Example 177, [7-(3-Chloro-4-morpholin-4-ylmethyl-phenyl)-7H-pyrrolo[2,3-d]pyrimidin-2-yl]-(3,4-diethoxy-phenyl)-amine], for which the values for the IC50 (in assay [1]; on GST-JAK2(808-1132)) were 1040 nM and 5.3 nM, respectively.
Consider `C[C@@H]1CN[C@@H](C)CN1c1ccc(Nc2ncc3ccn(-c4cc(F)c(CN5CCOCC5)c(F)c4)c3n2)cn1` (racemic) [Example 271, [7-(3,5-Difluoro-4-morpholin-4-ylmethyl-phenyl)-7H-pyrrolo[2,3-d]pyrimidin-2-yl]-[6-((2R,5S)-2,5-dimethyl-piperazin-1-yl)-pyridin-3-yl]-amine], for which the IC50 in assay [1] is 65 nM; on GST-JAK2(808-1132), 3.1 nM.
`O=C(c1ccc(Nc2ncc3ccn(-c4ccc(CN5CCOCC5)c(F)c4)c3n2)cc1)N1CCOCC1` [Example 157, {4-[7-(3-Fluoro-4-morpholin-4-ylmethyl-phenyl)-7H-pyrrolo[2,3-d]pyrimidin-2-ylamino]-phenyl}-morpholin-4-yl-methanone]: the results for the IC50 (in assay [1]; at GST-JAK2(808-1132)) were 130 nM and 6.1 nM, respectively.
The like results for `CN(C)CCNC(=O)c1ccc(Nc2ncc3ccn(-c4ccc(S(C)(=O)=O)cc4)c3n2)cc1` [Example 40, N-(2-Dimethylamino-ethyl)-4-[7-(4-methanesulfonyl-phenyl)-7H-pyrrolo[2,3-d]pyrimidin-2-ylamino]-benzamide] were, in that order, 155 nM and under 3 nM.
Turning to `CCOc1ccc(Nc2ncc3cc(C)n(-c4ccc(C(=O)N5CCOCC5)c(F)c4)c3n2)cc1OCC` [Example 287, {4-[2-(3,4-Diethoxy-phenylamino)-6-methyl-pyrrolo[2,3-d]pyrimidin-7-yl]-2-fluoro-phenyl}-morpholin-4-yl-methanone], the IC50 was 441 nM in assay [1] and 46.5 nM at GST-JAK2(808-1132).
Consider `COc1ccc(Nc2ncc3ccn(-c4ccc(C(=O)N5CCOCC5)cc4)c3n2)cn1` [Example 234, {4-[2-(6-Methoxy-pyridin-3-ylamino)-pyrrolo[2,3-d]pyrimidin-7-yl]-phenyl}-morpholin-4-yl-methanone], for which the IC50 in assay [1] came to 910 nM; on GST-JAK2(808-1132), 8.1 nM.
Turning to `O=S1(=O)CCN(Cc2c(F)cc(-n3ccc4cnc(Nc5ccncc5)nc43)cc2F)CC1` [Example 183, {7-[4-(1,1-Dioxido-thiomorpholin-4-ylmethyl)-3,5-difluoro-phenyl]-7H-pyrrolo[2,3-d]pyrimidin-2-yl}-pyridin-4-yl-amine], the IC50 in assay [1] amounted to 95 nM; on GST-JAK2(808-1132), 3.3 nM.
